Values joined by “and” are separate entries in the source; they are usually repeats but may differ in a detail not shown here. Equal entries are not always repeated.
Experiments:
[1] = Urinary excretion of phenolic metabolites after intake of the GCPE nutraceutical; details: for Cumulative urinary excretion, Total 0–24 h / Urinary excretion: urine; for Cumulative urinary excretion, Total 0–24 h: mean ± SEM, n = 9
[2] = Fecal excretion of phenolic metabolites after intake of the GCPE nutraceutical; details: feces
Method: Participants attended the Human Nutrition Unit (HNU) at the Institute of Food Science, Technology and Nutrition (ICTAN-CSIC) on two consecutive days at the beginning of the intervention (week 0) and also on two consecutive days at the end of the study, after consuming daily two doses of the GCPE nutraceutical, providing 600 mg/d phenols, during two months (week 8). […] A licensed health care professional placed an intravenous catheter in the subjects′ nondominant arm and collected a fasting blood sample (baseline, 0 h). Then, subjects drank the soluble GCPE nutraceutical dissolved in 200 mL of water. […] On the sampling days, volunteers remained at the HNU, where a (poly)phenol-free diet was provided. Half an hour after consuming the nutraceutical, volunteers ate a breakfast consisting of ham, cheese, white bread, and a yogurt. Lunch (paella, bread, and yogurt) and an afternoon snack (muffin and yogurt) were eaten 5 and 9 h, respectively, after consuming the nutraceutical. Water and isotonic beverages were freely available. […] The same protocol was followed during visits at the end of the 8-week intervention. On each occasion, two days before each visit to the HNU, subjects consumed a low (poly)phenol diet free of foods containing hydroxycinnamates such as coffee, herbal teas, red wine, artichokes, whole grain cereals, vegetables, fruits and fruit juices, and dried fruits. Only banana, watermelon, cantaloupes, and potatoes were allowed.
(§1) Blood samples were immediately centrifuged (10 min, 3000 rpm, 4 °C) to obtain plasma. […] All biological samples were stored at −80 °C until analysis.
To extract plasma metabolites, 10 µL of 50% (v/v) aqueous formic acid, and 900 µL cold acetonitrile containing 50 µL of 10% (w/v) ascorbic acid were added to 400 µL defrosted plasma. Samples were vortexed and centrifuged (14,000 rpm, 10 min, 4 °C), repeating the extraction and combining the two supernatants, which were reduced to dryness under nitrogen [13]. Dried samples were resuspended in 150 µL of 0.1% aqueous formic acid (containing 10% acetonitrile acidified with 0.1% formic acid), centrifuged (15 min, 14,000 rpm, 4 °C), and the supernatant collected. Urine samples were diluted 1:1 with Milli-Q water and centrifuged (14,000 rpm, 20 min, 4 °C) prior to analysis. Phosphate-buffered saline (3 mL) was added to a representative 300 mg sample of thawed feces, homogenized in an ultrasound bath during 10 min, centrifuged (14,000 rpm, 20 min, 4 °C), and the supernatants collected.
Mobile phase A was 0.1% formic acid in Milli-Q water, and mobile phase B was acetonitrile containing 0.1% formic acid at a 0.3 mL/min flow rate. […] Metabolites were identified based on their retention time using authentic standards when possible. […] Urine concentration of excreted metabolites was normalized to the total volume excreted in each studied interval.
Plasma (30 µL), urine (5 µL) and fecal extracts (5 µL) were filtered through 0.45 µm
cellulose-acetate membrane filters and injected into an Agilent 1200 series LC system
ESI-Jet Stream Technology (Agilent Technologies). A reverse-phase Ascentis Express
C18 (15 cm x 3 mm, 2.7 µm) column (Sigma-Aldrich Quimica, Madrid), preceded by a
phase A was 0.1% formic acid in Milli-Q water, and mobile phase B was acetonitrile
containing 0.1% formic acid at a 0.3 mL/min flow rate. The gradient started with 10% B
at 0 min, 30% B at 10 min, 40% B at 15 min, reaching 50% B at 20 min. The starting
gradient was then re-established in 2 min and maintained for 8 min to re-equilibrate the

[3] = Plasma pharmacokinetics of phenolic metabolites after intake of the GCPE nutraceutical (LC-MS-QToF); details: for AUC(0-t): AUC0–24h; for Tmax: Tmax (h) or Range
Method: Participants attended the Human Nutrition Unit (HNU) at the Institute of Food Science, Technology and Nutrition (ICTAN-CSIC) on two consecutive days at the beginning of the intervention (week 0) and also on two consecutive days at the end of the study, after consuming daily two doses of the GCPE nutraceutical, providing 600 mg/d phenols, during two months (week 8). On each occasion, on the first visit day (Figure 1), subjects arrived at the HNU after an overnight (12 h) fast and provided a urine sample. A licensed health care professional placed an intravenous catheter in the subjects′ nondominant arm and collected a fasting blood sample (baseline, 0 h). Then, subjects drank the soluble GCPE nutraceutical dissolved in 200 mL of water. Subsequently, blood samples were collected in EDTA-coated tubes at 0.5, 1, 1.5, 2, 3, 4, 6, 8, 10, and 11 h. On the sampling days, volunteers remained at the HNU, where a (poly)phenol-free diet was provided. Half an hour after consuming the nutraceutical, volunteers ate a breakfast consisting of ham, cheese, white bread, and a yogurt. Lunch (paella, bread, and yogurt) and an afternoon snack (muffin and yogurt) were eaten 5 and 9 h, respectively, after consuming the nutraceutical. Water and isotonic beverages were freely available. Volunteers were instructed to eat a (poly)phenol-free dinner that night and to attend the HNU on the next day after a 12 h fast. Then, a final blood sample was obtained from the antecubital vein 24 h after consuming the nutraceutical. The same protocol was followed during visits at the end of the 8-week intervention. On each occasion, two days before each visit to the HNU, subjects consumed a low (poly)phenol diet free of foods containing hydroxycinnamates such as coffee, herbal teas, red wine, artichokes, whole grain cereals, vegetables, fruits and fruit juices, and dried fruits. Only banana, watermelon, cantaloupes, and potatoes were allowed.
as §1
To extract plasma metabolites, 10 µL of 50% (v/v) aqueous formic acid, and 900 µL cold acetonitrile containing 50 µL of 10% (w/v) ascorbic acid were added to 400 µL defrosted plasma. Samples were vortexed and centrifuged (14,000 rpm, 10 min, 4 °C), repeating the extraction and combining the two supernatants, which were reduced to dryness under nitrogen [13]. Dried samples were resuspended in 150 µL of 0.1% aqueous formic acid (containing 10% acetonitrile acidified with 0.1% formic acid), centrifuged (15 min, 14,000 rpm, 4 °C), and the supernatant collected.
A reverse-phase Ascentis Express C18 (15 cm × 3 mm, 2.7 µm) column (Sigma-Aldrich Quimica, Madrid, Spain), preceded by a Supelco 55215-U guard column (3 mm × 5 mm, 2.7 µm), was used for separation. Mobile phase A was 0.1% formic acid in Milli-Q water, and mobile phase B was acetonitrile containing 0.1% formic acid at a 0.3 mL/min flow rate. […] Metabolites were identified based on their retention time using authentic standards when possible.

[4] = human, oral, 300 mg hydroxycinnamic acids, week 0
[5] = human, oral, 300 mg hydroxycinnamic acids, week 8
[6] = human, oral, 300 mg hydroxycinnamic acids, week 0, first peak where biphasic
[7] = human, oral, 300 mg hydroxycinnamic acids, week 8, first peak where biphasic
[8] = human, oral, 300 mg, Cmax, week 0, GCPE nutraceutical with 300 mg hydroxycinnamic acids, mean ± SEM, n = 9
[9] = human, oral, 300 mg, Cmax, week 8, GCPE nutraceutical with 300 mg hydroxycinnamic acids, mean ± SEM, n = 9
[10] = week 0, GCPE nutraceutical with 300 mg hydroxycinnamic acids, mean ± SEM, n = 9
[11] = week 0, first peak where biphasic
[12] = week 8, GCPE nutraceutical with 300 mg hydroxycinnamic acids, mean ± SEM, n = 9
[13] = week 8, first peak where biphasic

| Cumulative urinary excretion, Total 0–24 h ([1]; week 0) | Cumulative urinary excretion, Total 0–24 h ([1]; week 8) | Amount excreted in urine, 0- 3 h ([1]; week 0, interval 0–3 h) [µmol] | Amount excreted in urine, 3-6 h ([1]; week 0, interval 3–6 h) [µmol] | Amount excreted in urine, 6-9 h ([1]; week 0, interval 6–9 h) [µmol] | Amount excreted in urine, 9-11 h ([1]; week 0, interval 9–11 h) [µmol] | Amount excreted in urine, 11-24 h ([1]; week 0, interval 11–24 h) [µmol] | Amount excreted in urine, 0- 3 h ([1]; week 8, interval 0–3 h) [µmol] | Amount excreted in urine, 3-6 h ([1]; week 8, interval 3–6 h) [µmol] | Amount excreted in urine, 6-9 h ([1]; week 8, interval 6–9 h) [µmol] | Amount excreted in urine, 9-11 h ([1]; week 8, interval 9–11 h) [µmol] | Amount excreted in urine, 11-24 h ([1]; week 8, interval 11–24 h) [µmol] | Structure (SMILES) | AUC0–24h ([3]; week 0) [µM/min] | Cmax [3, 10] | Tmax (h) or Range [3, 11] [h] | AUC0–24h ([3]; week 8) [µM/min] | Cmax [3, 12] | Tmax (h) or Range [3, 13] [h] | also measured |
| --- | --- | --- | --- | --- | --- | --- | --- | --- | --- | --- | --- | --- | --- | --- | --- | --- | --- | --- | --- |
| 0.13 ± 0.02 µmol | 0.18 ± 0.04 µmol | 0.016 ± 0.005 | 0.007 ± 0.003 | 0.017 ± 0.005 | 0.018 ± 0.006 | 0.035 ± 0.009 | 0.03 ± 0.01 | 0.014 ± 0.003 | 0.027 ± 0.007 | 0.018 ± 0.007 | 0.03 ± 0.009 | O=C(O)c1ccc(O)c(O)c1 [3,4-Dihydroxybenzoic acid] |  |  |  |  |  |  | Amount of fecal metabolite excreted at 0 h ([2]; week 0, mean ± SEM, n = 9): 0.016 ± 0.006 µmol/g; Amount of fecal metabolite excreted at 0 h ([2]; week 0, mean ± SEM, n = 9, listed as 3,4-dihydroxybenzoic acid): 0.016 µmol/g; Amount of fecal metabolite excreted at 0 h ([2]; week 8): 0.026 ± 0.008 µmol/g; Amount of fecal metabolite excreted at 0 h ([2]; week 8, listed as 3,4-dihydroxybenzoic acid): 0.026 µmol/g; Amount of fecal metabolite excreted at 24 h ([2]; week 0): 0.018 ± 0.005 µmol/g; Amount of fecal metabolite excreted at 24 h ([2]; week 8): 0.04 ± 0.01 µmol/g |
|  |  |  |  |  |  |  |  |  |  |  |  | O=C(O)/C=C/c1ccc(O)cc1 [CoA, 4′-Hydroxycinnamic acid] |  |  |  |  |  |  | Amount of fecal metabolite excreted at 0 h ([2]; week 8): 0.006 ± 0.004 µmol/g; Amount of fecal metabolite excreted at 24 h ([2]; week 0): 0.002 ± 0.002 µmol/g; Amount of fecal metabolite excreted at 24 h ([2]; week 8): 0.003 ± 0.001 µmol/g |
|  |  |  |  |  |  |  |  |  |  |  |  | O=C(O)CCc1cccc(O)c1 [DHiCoA, 3-(3′-Hydroxyphenyl)propanoic acid] |  |  |  |  |  |  | Amount of fecal metabolite excreted at 0 h ([2]; week 0, mean ± SEM, n = 9): 0.21 µmol/g and 0.21 ± 0.07 µmol/g; Amount of fecal metabolite excreted at 0 h ([2]; week 8): 0.4 µmol/g and 0.4 ± 0.1 µmol/g; Amount of fecal metabolite excreted at 24 h ([2]; week 0): 0.24 ± 0.07 µmol/g; Amount of fecal metabolite excreted at 24 h ([2]; week 8): 0.25 ± 0.07 µmol/g |
| 3.7 ± 0.4 µmol | 3.2 ± 0.2 µmol | 0.26 ± 0.04 | 0.25 ± 0.08 | 1.2 ± 0.3 | 0.8 ± 0.2 | 1.2 ± 0.09 | 0.32 ± 0.07 | 0.38 ± 0.08 | 1 ± 0.2 | 0.7 ± 0.2 | 1 ± 0.2 | COc1ccc(CCC(=O)O)cc1O [DHiFA, 3-(3′-Hydroxy-4′-methoxyphenyl) propanoic acid] |  |  |  |  |  |  | AUC(0-t) [3, 4]: 0.5 ± 0.2 µM·h; AUC(0-t) [3, 5]: 0.6 ± 0.2 µM·h; Tmax [3, 6]: 7 ± 1 h; Tmax [3, 7]: 7 ± 1 h; Cmax [3, 8]: 70 ± 20 nM; Cmax [3, 9]: 70 ± 20 nM |
| 0.7 ± 0.2 µmol | 0.63 ± 0.08 µmol | 0.08 ± 0.02 | 0.08 ± 0.01 | 0.2 ± 0.1 | 0.09 ± 0.02 | 0.27 ± 0.06 | 0.08 ± 0.01 | 0.06 ± 0.01 | 0.12 ± 0.03 | 0.12 ± 0.04 | 0.25 ± 0.05 | COc1ccc(CCC(=O)O)cc1OC [Dihydrodimethoxycinnamic acid, 3-(3′,4′-Dimethoxyphenyl)propanoic acid] |  |  |  |  |  |  | AUC(0-t) [3, 4]: 1.2 ± 0.1 µM·h; AUC(0-t) [3, 5]: 1.3 ± 0.1 µM·h; Tmax [3, 6]: 4 ± 1 h; Tmax [3, 7]: 10 ± 4 h; Cmax [3, 8]: 110 ± 20 nM; Cmax [3, 9]: 120 ± 10 nM |
| 3.4 ± 0.4 µmol | 3.7 ± 0.5 µmol | 0.5 ± 0.1 | 0.42 ± 0.07 | 0.7 ± 0.2 | 0.44 ± 0.09 | 1.3 ± 0.3 | 0.6 ± 0.1 | 0.37 ± 0.05 | 0.8 ± 0.1 | 0.8 ± 0.3 | 1.3 ± 0.2 | COc1cc(C=CC(=O)O)ccc1OC1OC(C(=O)O)C(O)C(O)C1O (centres unmarked) [FA-4′-glucuronide, 3′-Methoxycinnamic acid-4′-glucuronide] | 0.06 ± 0.01 | 16 ± 9 nM | 1.2 ± 0.3 | 0.063 ± 0.02 | 9 ± 2 nM | 1.2 ± 0.3 | Tmax, second peak ([3]; week 0, biphasic profile): 4.7 ± 0.3 h |
| 32 µmol and 32 ± 5 µmol | 33 µmol and 33 ± 5 µmol | 5 ± 2 | 3.2 ± 0.9 | 7 ± 2 | 3.6 ± 0.7 | 13 ± 2 | 4 ± 2 | 3.4 ± 0.7 | 7 ± 1 | 7 ± 2 | 11 ± 2 | COc1cc(C=CC(=O)O)ccc1OS(=O)(=O)O [FA-4′-sulfate, 3′-Methoxycinnamic acid-4′-sulfate] | 0.11 ± 0.03 | 17 ± 4 nM | 0.78 ± 0.09 | 0.13 ± 0.02 | 17 ± 4 nM | 0.56 ± 0.06 | Urinary excretion ([1]; week 0): 32 µmol/24 h; Urinary excretion ([1]; week 8): 33 µmol/24 h; Tmax, second peak ([3]; week 0, biphasic profile): 6.8 ± 0.7 h; Tmax, second peak ([3]; week 8, biphasic profile): 7.2 ± 0.6 h |
| 19 ± 5 µmol | 25 ± 5 µmol | 1 ± 0.2 | 0.9 ± 0.3 | 4 ± 1 | 2.6 ± 0.9 | 3.9 ± 0.9 | 1 ± 0.3 | 1.2 ± 0.3 | 3 ± 1 | 3 ± 1 | 3 ± 1 | COc1cc(/C=C/C(=O)NCC(=O)O)ccc1O [Feruloylglycine] | 0.029 ± 0.007 | Traces ^b | 7 ± 1 | 0.026 ± 0.004 | Traces ^b | 8.4 ± 0.6 | Cumulative urinary excretion, Total 0–24 h ([1]; week 0, listed as feruloylglycine): 19 µmol; Cumulative urinary excretion, Total 0–24 h ([1]; week 8, listed as feruloylglycine): 25 µmol; Amount excreted in urine, TOTAL ([1]; week 0, Table S5 total): 19 ± 5 µmol; Amount excreted in urine, 0 h ([1]; week 8, 0 h (before intake on sampling day)): 14 ± 4 µmol; Amount excreted in urine, TOTAL ([1]; week 8, Table S6 total): 25 ± 5 µmol; Cmax ([3]; weeks 0 and 8 not distinguished): trace levels |
| 1.7 ± 0.2 µmol | 2.1 ± 0.2 µmol | 1 ± 0.2 | 0.35 ± 0.07 | 0.27 ± 0.07 | 0.04 ± 0.03 | 0.04 ± 0.02 | 1.2 ± 0.2 | 0.32 ± 0.04 | 0.39 ± 0.07 | 0.13 ± 0.07 | 0.09 ± 0.04 | COc1ccc(/C=C/C(=O)O)cc1O [iFA, 3′-Hydroxy-4′-methoxycinnamic acid] |  |  |  |  |  |  | AUC(0-t) [3, 4]: 0.025 ± 0.007 µM·h; AUC(0-t) [3, 5]: 0.043 ± 0.008 µM·h; Tmax [3, 6]: 0.5 ± 0.1 h; Tmax [3, 7]: 0.5 h; AUC(0-t) ([3]; human, oral, 300 mg phenols, week 0): 0.025 µM·h; AUC(0-t) ([3]; human, oral, 300 mg phenols, week 8): 0.043 µM·h; Cmax [3, 8]: 23 ± 6 nM; Cmax [3, 9]: 32 ± 7 nM |

| Structure (SMILES) | Cumulative urinary excretion, Total 0–24 h ([1]; week 0) | Cumulative urinary excretion, Total 0–24 h ([1]; week 8) | Amount excreted in urine, 0- 3 h ([1]; week 0, interval 0–3 h) [µmol] | Amount excreted in urine, 3-6 h ([1]; week 0, interval 3–6 h) [µmol] | Amount excreted in urine, 6-9 h ([1]; week 0, interval 6–9 h) [µmol] | Amount excreted in urine, 9-11 h ([1]; week 0, interval 9–11 h) [µmol] | Amount excreted in urine, 11-24 h ([1]; week 0, interval 11–24 h) [µmol] | Amount excreted in urine, 0- 3 h ([1]; week 8, interval 0–3 h) [µmol] | Amount excreted in urine, 3-6 h ([1]; week 8, interval 3–6 h) [µmol] | Amount excreted in urine, 6-9 h ([1]; week 8, interval 6–9 h) [µmol] | Amount excreted in urine, 9-11 h ([1]; week 8, interval 9–11 h) [µmol] | Amount excreted in urine, 11-24 h ([1]; week 8, interval 11–24 h) [µmol] | AUC0–24h ([3]; week 0) [µM/min] | Cmax [3, 10] | Tmax (h) or Range [3, 11] [h] | AUC0–24h ([3]; week 8) [µM/min] | Cmax [3, 12] | Tmax (h) or Range [3, 13] [h] | also measured |
| --- | --- | --- | --- | --- | --- | --- | --- | --- | --- | --- | --- | --- | --- | --- | --- | --- | --- | --- | --- |
| COc1ccc(CCC(=O)O)cc1O[C@@H]1O[C@H](C(=O)O)[C@@H](O)[C@H](O)[C@H]1O [DHiFA-3′-glucuronide, 3-(4′-Methoxyphenyl)propanoic acid-3′-glucuronide] | 2.9 ± 0.5 µmol | 3.1 ± 0.7 µmol | 0.12 ± 0.04 | 0.16 ± 0.06 | 1.1 ± 0.4 | 0.7 ± 0.2 | 0.8 ± 0.2 | 0.3 ± 0.1 | 0.28 ± 0.07 | 1.1 ± 0.2 | 0.8 ± 0.4 | 0.6 ± 0.3 | 0.6 ± 0.4 | 60 ± 20 nM | 9.0 ± 0.6 | 0.7 ± 0.4 | 70 ± 30 nM | 8.1 ± 0.8 |  |
| COc1ccc(CCC(=O)O)cc1OS(=O)(=O)O [DHiFA-3′-sulfate, 3-(4′-Methoxyphenyl)propanoic acid-3′-sulfate] | 3 ± 1 µmol | 2.6 ± 0.8 µmol | 0.18 ± 0.06 | 0.1 ± 0.04 | 0.4 ± 0.1 | 0.2 ± 0.1 | 1.9 ± 0.8 | 0.14 ± 0.04 | 0.09 ± 0.03 | 0.24 ± 0.09 | 0.11 ± 0.03 | 2 ± 0.7 | 0.3 ± 0.1 | 40 ± 10 nM | 7 ± 1 | 0.8 ± 0.5 | 110 ± 60 nM | 11.6 ± 3.2 |  |
